# Measurements: PMC7781311 (bioRxiv, 2021)
# Read-outs that look alike come from different tables or passages of the source.
# What was measured:
# Calu3 cells = conditions: same protocol without PP, ATP content
# in vitro = conditions: human
# [1] = test system: SARS-CoV-2-S pseudotyped particles (PP); assay type: cell-based; conditions: Calu-3 cells
# TMPRSS2 = TMPRSS2 (Homo sapiens, UniProt O15393); assay: TMPRSS2 biochemical; conditions: enzyme assay, maximal efficacy
# TMPRSS2, sequence (O15393 whole entry): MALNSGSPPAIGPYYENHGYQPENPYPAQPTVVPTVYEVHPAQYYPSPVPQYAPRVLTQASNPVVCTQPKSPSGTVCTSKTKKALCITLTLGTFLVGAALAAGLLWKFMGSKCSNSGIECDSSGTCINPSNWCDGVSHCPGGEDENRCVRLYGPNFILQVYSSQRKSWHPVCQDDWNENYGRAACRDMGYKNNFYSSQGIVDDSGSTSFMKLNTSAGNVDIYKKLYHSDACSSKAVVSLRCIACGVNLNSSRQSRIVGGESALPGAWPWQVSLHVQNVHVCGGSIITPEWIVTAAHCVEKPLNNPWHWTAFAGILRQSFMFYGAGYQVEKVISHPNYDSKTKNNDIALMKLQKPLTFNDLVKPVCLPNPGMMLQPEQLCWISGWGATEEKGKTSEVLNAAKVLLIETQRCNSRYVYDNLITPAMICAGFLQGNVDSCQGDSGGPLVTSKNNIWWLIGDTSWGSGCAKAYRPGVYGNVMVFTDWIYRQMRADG
SMILES,Calu3 cytotoxicity Efficacy (Calu3 cells),IC50 (in vitro),Activity in the PP entry assay (in words) [1],TMPMSS2 Efficacy (TMPRSS2),Activity in the PP entry assay (in words) ([1]; listed as Gabexate),Activity in the PP entry assay (in words) ([1]; listed as gabexate)
"N=C(N)c1ccc2cc(OC(=O)c3ccc(N=C(N)N)cc3)ccc2c1 [NCGC00160398, Nafamostat]",38.74%,15.8 µM,high potency and efficacy,–,–,–
"C=Cc1cc(C(=O)Nc2ccc(C(=N)N)cc2)c(-c2ccc(C(=O)NCC3CC3)nc2C(=O)O)cc1OC [NCGC00522636, Avoralstat]",–,–,comparable inhibition activity to camostat,–,–,–
"COC(=O)[C@H](Cc1cccc(C(=N)N)c1)[C@@H](C)NC(=O)c1ccc(-c2cc[n+]([O-])cc2)cc1 [NCGC00378763, Otamixaban]",0%,–,efficient activity,–,–,–
"CN(C)C(=O)COC(=O)Cc1ccc(OC(=O)c2ccc(NC(=N)N)cc2)cc1 [NCGC00167526, Camostat]",0%,–,high potency and efficacy,100%,–,–
"CCOC(=O)c1ccc(OC(=O)CCCCCNC(=N)N)cc1 [NCGC00025297, Gabexate]",0%,–,–,–,inactive,did not exhibit activity
